How the values were obtained:
[1] = test system: A549 cells; assay: MTT antiproliferative assay, A549; assay type: cell-based, human; details: for IC50: Homo sapiens, MTT, A549 (lung), mean ± SD of three experiments; for times more active than doxorubicin: A549, ratio of IC50 values
From the text: (§1) adenocarcinoma) cell lines.
(§2) supplied to that same media.
(§3) carbon dioxide. […] The positive
(§4) (FluoStar Omega (BMG Labtec, Ortenberg, Germany).

[2] = test system: SKOV3 cells; assay: MTT antiproliferative assay, SKOV3; assay type: cell-based, human; details: for IC50: Homo sapiens, SK-OV-3, MTT, SKOV3 (ovarian), mean ± SD of three experiments; for fold better activity than doxorubicin: SKOV3, ratio of IC50 values
From the text: as §1, §2, §3, §4

[3] = test system: MDA-MB-231 cells; assay: MTT antiproliferative assay, MDA-MB-231; details: for IC50: read-out: IC50 (μM) MDA-MB231, MTT, MDA-MB-231 (breast), mean ± SD of three experiments; for fold increase in cytotoxicity versus doxorubicin: MDA-MB-231, ratio of IC50 values
Protocol: Doxorubicin was used as a standard anticancer drug.
The cytotoxicity was assessed using the MTT method, according to our previously reported work [32]. The cell lines were purchased from American Type Culture Collection (ATCC).
FBS (10%) and 100 units/mL PS (penicillin/streptomycin) were
supplied to that same media. The cells incubated at 37 °C in a humidified environment with 5%

[4] = molecular target: EGFR kinase (Homo sapiens, UniProt P00533); assay: In vitro EGFR inhibitory activity; assay type: biochemical
Protocol: EGFR inhibitory activity was assayed according to the reported method.

[5] = test system: SKOV3 cells; assay: Cell cycle distribution, propidium iodide flow cytometry, SKOV3; assay type: cell-based, human; details: for cell cycle arrest phase: SKOV3; for cell distribution in G1 phase / cell distribution in G2 phase / cell distribution in S phase: SKOV3, treated at IC50 for 48 h; for cell distribution in G1 phase: control 31.03 ± 1.86%; for cell distribution in G2 phase: control 34.23 ± 1.38%; for cell distribution in S phase: control 34.72 ± 1.80%
Protocol: (§5) The most promising compounds (10 and 13) were explored for cell cycle distribution to determine the intracellular mode of action of these compounds. […] In the present study, compounds 10 and 13 arrest different cell cycle phases in A549, MDA-MB 231, and SKOV3 cancer cells. […] However, compound 10 arrests the G2/S phase in both MDA-MB 231 and SKOV3, while it arrests the G1/G2 phases in lung A549 carcinoma.
(§6) The analysis was performed according to our previously published work.
as §1, §2, §3, §4
(§7) delivered to cancer cells for 48 hours. A549, MDA,MB 231 and SKOV3 cells were then
(§8) Technology (CST) and incubated for 15 minutes. Fluorescence activated cell sorting analysis
(§9) of cell cycle phases for each sample [37].

[6] = test system: MDA-MB-231 cells; assay: Cell cycle distribution, propidium iodide flow cytometry, MDA-MB-231; assay type: cell-based, human; details: for cell cycle arrest phase: MDA-MB-231; for cell distribution in G1 phase / cell distribution in S phase / cell distribution in G2 phase: MDA-MB-231, treated at IC50 for 48 h; for cell distribution in G1 phase: control 28.51 ± 2.09%; for cell distribution in S phase: control 35.51 ± 2.10%; for cell distribution in G2 phase: control 35.96 ± 1.97%
Protocol: as §5, §6, §1, §2, §3, §4, §7, §8, §9

[7] = test system: SKOV3 cells; assay: Apoptosis, annexin V-FITC/PI flow cytometry, SKOV3; assay type: cell-based, human
Protocol: (§10) The apoptosis studies regarding compounds 10 and 13 using annexin V-FITC/PI staining was also examined by flow cytometry.
as §1, §2, §3, §4, §7, §8, §9

[8] = test system: A549 cells; assay: Apoptosis, annexin V-FITC/PI flow cytometry, A549; assay type: cell-based, human; details: for early apoptosis: A549; for late apoptosis / necrosis: A549, result in words
Protocol: as §10, §1, §2, §3, §4, §7, §8, §9

[9] = test system: A549 cells; assay: Cell cycle distribution, propidium iodide flow cytometry, A549; assay type: cell-based, human; details: for cell cycle arrest phase: A549; for cell distribution in G2 phase / cell distribution in G1 phase / cell distribution in S phase: A549, treated at IC50 for 48 h; for cell distribution in G2 phase: control 29.13 ± 2.31%; for cell distribution in G1 phase: control 32.88 ± 2.04%; for cell distribution in S phase: control 38.48 ± 3.71%
Protocol: as §5, §6, §1, §2, §3, §4, §7, §8, §9

[10] = test system: MDA-MB-231 cells; assay: Apoptosis, annexin V-FITC/PI flow cytometry, MDA-MB-231; assay type: cell-based, human; details: for early apoptosis / late apoptosis: MDA-MB-231
Protocol: as §10, §1, §2, §3, §4, §7, §8, §9

[11] = test system: esophageal cancer; details: cited from earlier work
[12] = test system: non-small cell lung cancer (NSCLC); details: cited from earlier work
[13] = test system: hepatocellular carcinoma; details: cited from earlier work

Sequence of EGFR kinase (P00533 25-1210): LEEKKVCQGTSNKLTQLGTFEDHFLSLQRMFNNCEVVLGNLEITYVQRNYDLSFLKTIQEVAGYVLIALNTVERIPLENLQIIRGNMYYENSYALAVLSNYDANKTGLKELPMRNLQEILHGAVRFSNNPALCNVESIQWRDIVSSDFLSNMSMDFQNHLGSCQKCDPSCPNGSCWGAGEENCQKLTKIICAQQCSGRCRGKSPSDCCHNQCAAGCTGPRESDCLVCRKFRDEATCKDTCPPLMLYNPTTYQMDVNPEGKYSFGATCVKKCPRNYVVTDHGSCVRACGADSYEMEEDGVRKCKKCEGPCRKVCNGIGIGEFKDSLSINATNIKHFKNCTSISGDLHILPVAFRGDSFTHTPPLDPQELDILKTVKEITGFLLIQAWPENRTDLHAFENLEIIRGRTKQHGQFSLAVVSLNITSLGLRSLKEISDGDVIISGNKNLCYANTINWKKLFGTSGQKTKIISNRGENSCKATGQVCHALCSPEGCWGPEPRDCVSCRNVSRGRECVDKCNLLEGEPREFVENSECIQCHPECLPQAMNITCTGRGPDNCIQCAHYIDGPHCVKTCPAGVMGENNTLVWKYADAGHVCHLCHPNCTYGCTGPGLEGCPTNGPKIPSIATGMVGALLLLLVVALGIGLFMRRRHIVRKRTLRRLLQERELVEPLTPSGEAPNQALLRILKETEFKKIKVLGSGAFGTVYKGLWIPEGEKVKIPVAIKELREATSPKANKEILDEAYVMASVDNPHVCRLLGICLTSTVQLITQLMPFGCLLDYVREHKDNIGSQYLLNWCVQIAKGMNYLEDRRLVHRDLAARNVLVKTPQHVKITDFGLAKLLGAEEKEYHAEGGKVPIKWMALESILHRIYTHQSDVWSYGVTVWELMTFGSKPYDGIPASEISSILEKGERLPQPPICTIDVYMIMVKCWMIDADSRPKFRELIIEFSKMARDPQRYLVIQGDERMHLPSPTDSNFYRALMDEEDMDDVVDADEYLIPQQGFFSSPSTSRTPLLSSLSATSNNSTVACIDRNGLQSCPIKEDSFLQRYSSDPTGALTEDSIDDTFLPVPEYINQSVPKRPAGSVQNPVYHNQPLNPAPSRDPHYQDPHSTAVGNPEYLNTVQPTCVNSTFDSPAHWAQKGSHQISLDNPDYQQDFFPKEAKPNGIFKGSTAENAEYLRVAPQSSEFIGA

Fc1ccc(-n2cc(CSc3nnc(Cn4c(-c5ccc(Cl)cc5Cl)nc5ccccc54)o3)nn2)cc1 [Compound 8, 2-{[2-(2,4-Dichlorophenyl)-1H-benzo[d]imidazol-1-yl]methyl}-5-({[1-(4-Fluorophenyl)-1H-1,2,3-triazol-4-yl]methyl}thio)-1,3,4-oxadiazole]
melting point: 110 to 112 °C
IC50 [1]: 26.7 ± 1.26 µM
IC50 [2]: 17.7 ± 0.68 µM
IC50 [3]: 15.5 ± 1.64 µM

Clc1ccc(-c2nc3ccccc3n2Cc2nnc(SCc3cn(-c4cccc(Br)c4)nn3)o2)c(Cl)c1 [Compound 9, 2-({[1-(3-Bromophenyl)-1H-1,2,3-triazol-4-yl]methyl}thio)-5-{[2-(2,4-Dichlorophenyl)-1H-benzo[d]imidazol-1-yl]methyl}-1,3,4-oxadiazole]
melting point: 180 to 182 °C
IC50 [1]: 17.4 ± 0.54 µM
IC50 [2]: 13.6 ± 0.71 µM
IC50 [4]: 0.95 ± 0.023 µM
IC50 [3]: 10.9 ± 0.58 µM

Oc1ccccc1-n1cc(CSc2nnc(Cn3c(-c4ccc(Cl)cc4Cl)nc4ccccc43)o2)nn1 [Compound 10, 2-(4-{[(5-{[2-(2,4-Dichlorophenyl)-1H-benzo[d]imidazol-1-yl]methyl}-1,3,4-oxadiazol-2-yl)thio]methyl}-1H-1,2,3-triazol-1-yl)phenol]
cell cycle arrest phase [5]: G2/S phase
cell distribution in G1 phase [5]: 16.15 ± 2.11%
cell distribution in G2 phase [5]: 48.73± 1.89%
cell distribution in S phase [5]: 35.11 ± 1.21%
cell cycle arrest phase [6]: S and G2 phases
cell distribution in G1 phase [6]: 17.58 ± 1.45%
cell distribution in S phase [6]: 37.82 ± 2.57%
cell distribution in G2 phase [6]: 44.58 ± 3.03%
early apoptosis [7]: 58.5%
early apoptosis [8]: 55.1%
late apoptosis [8]: no late apoptosis
necrosis [8]: no late apoptosis or necrosis
times more active than doxorubicin [1]: 1.76 times
IC50 [1]: 3.31 ± 0.14 µM
IC50 [2]: 6.98 ± 0.28 µM
fold better activity than doxorubicin [2]: 1.23 fold
cell cycle arrest phase [9]: G1 and G2 phases
cell distribution in G2 phase [9]: 33.01 ± 2.28%
cell distribution in G1 phase [9]: 34.66 ± 2.80%
cell distribution in S phase [9]: 32.32 ± 1.51%
IC50 [4]: 0.33 ± 0.051 µM
fold increase in cytotoxicity versus doxorubicin [3]: 4.0 fold
IC50 [3]: 1.18 ± 0.68 µM
early apoptosis [10]: 69.7%
late apoptosis [10]: 3.2%
necrosis ([10]; MDA-MB-231, result in words): without any necrosis

Cc1ccccc1-n1cc(CSc2nnc(Cn3c(-c4ccc(Cl)cc4Cl)nc4ccccc43)o2)nn1 [Compound 11, 2-{[2-(2,4-Dichlorophenyl)-1H-benzo[d]imidazol-1-yl]methyl}-5-({[1-(o-tolyl)-1H-1,2,3-triazol-4-yl]methyl}thio)-1,3,4-oxadiazole]
melting point: 152 to 153 °C
IC50 [1]: 43.8 ± 0.87 µM
IC50 [2]: 25.7 ± 1.16 µM
IC50 [3]: 36.7 ± 0.75 µM

Clc1ccc(-c2nc3ccccc3n2Cc2nnc(SCc3cn(-c4ccc(Cl)cc4Cl)nn3)o2)c(Cl)c1 [Compound 12, 2-({[1-(2,4-Dichlorophenyl)-1H-1,2,3-triazol-4-yl]methyl}thio)-5-{[2-(2,4-Dichlorophenyl)-1H-benzo[d]imidazol-1-yl]methyl}-1,3,4-oxadiazole]
melting point: 100 to 102 °C
IC50 [1]: 37.1 ± 0.67 µM
IC50 [2]: 33.6 ± 0.91 µM
IC50 [3]: 25.2 ± 1.82 µM

O=C(CSc1nnc(Cn2c(-c3ccc(Cl)cc3Cl)nc3ccccc32)o1)Nc1ccc(F)cc1 [Compound 13, 2-[(5-{[2-(2,4-Dichlorophenyl)-1H-benzo[d]imidazol-1-yl]methyl}-1,3,4-oxadiazol-2-yl)thio]-N-(4-Fluorophenyl)acetamide]
cell cycle arrest phase [5]: only the S phase
cell distribution in G1 phase [5]: 25.38 ± 0.44%
cell distribution in G2 phase [5]: 28.65 ± 1.73%
cell distribution in S phase [5]: 45.93 ± 1.78%
cell cycle arrest phase [6]: G1 and S phases
cell distribution in G1 phase [6]: 34.88 ± 3.09%
cell distribution in S phase [6]: 41.14 ± 1.34%
cell distribution in G2 phase [6]: 23.97 ± 2.93%
early apoptosis [7]: 76.2%
late apoptosis [7]: 21.7%
early apoptosis [8]: 66.4%
late apoptosis [8]: no late apoptosis
necrosis [8]: no late apoptosis or necrosis
times more active than doxorubicin [1]: 1.1 times
IC50 [1]: 5.3 ± 0.44 µM
IC50 [2]: 4.35 ± 0.38 µM
fold better activity than doxorubicin [2]: 1.98 fold
cell cycle arrest phase [9]: G1 phase
cell distribution in G2 phase [9]: 24.64 ± 2.52%
cell distribution in G1 phase [9]: 36.34 ± 2.19%
cell distribution in S phase [9]: 38.99 ± 1.67%
IC50 [4]: 0.38 ± 0.022 µM
fold increase in cytotoxicity versus doxorubicin [3]: 1.64 fold
IC50 [3]: 2.9 ± 0.53 µM
early apoptosis [10]: 80.24%
late apoptosis [10]: 5.4%

O=C(CSc1nnc(Cn2c(-c3ccc(Cl)cc3Cl)nc3ccccc32)o1)Nc1ccc(F)cc1F [Compound 14, 2-[(5-{[2-(2,4-Dichlorophenyl)-1H-benzo[d]imidazol-1-yl]methyl}-1,3,4-oxadiazol-2-yl)thio]-N-(2,4-Difluorophenyl)acetamide]
melting point: 212 to 214 °C
IC50 [1]: 11.6 ± 0.29 µM
IC50 [2]: 12.8 ± 0.53 µM
IC50 [4]: 1.21 ± 0.047 µM
IC50 [3]: 20.9 ± 0.24 µM

O=C(CSc1nnc(Cn2c(-c3ccc(Cl)cc3Cl)nc3ccccc32)o1)Nc1ccc(Br)cc1 [Compound 15, N-(4-Bromophenyl)-2-[(5-{[2-(2,4-Dichlorophenyl)-1H-benzo[d]imidazol-1-yl]methyl}-1,3,4-oxadiazol-2-yl)thio]acetamide]
melting point: 220 to 222 °C
IC50 [1]: 20.6 ± 1.41 µM
IC50 [2]: 13.7 ± 0.45 µM
IC50 [3]: 16.4 ± 0.44 µM

COc1ccc(NC(=O)CSc2nnc(Cn3c(-c4ccc(Cl)cc4Cl)nc4ccccc43)o2)cc1 [Compound 16, 2-[(5-{[2-(2,4-Dichlorophenyl)-1H-benzo[d]imidazol-1-yl]methyl}-1,3,4-oxadiazol-2-yl)thio]-N-(4-Methoxyphenyl)acetamide]
melting point: 195 to 197 °C
IC50 [1]: 7.83 ± 0.35 µM
IC50 [2]: 8.13 ± 0.28 µM
IC50 [4]: 1.09 ± 0.011 µM
IC50 [3]: 10.5 ± 0.88 µM

COC(=O)c1ccccc1NC(=O)CSc1nnc(Cn2c(-c3ccc(Cl)cc3Cl)nc3ccccc32)o1 [Compound 17, Methyl 2-{2-[(5-{[2-(2,4-Dichlorophenyl)-1H-benzo[d]imidazol-1-yl]methyl}-1,3,4-oxadiazol-2-yl)thio]acetamido}benzoate]
melting point: 176 to 178 °C
IC50 [1]: 18 ± 0.87 µM
IC50 [2]: 12.2 ± 0.35 µM
IC50 [4]: 1.54 ± 0.026 µM
IC50 [3]: 11.9 ± 0.91 µM

C#Cc1cccc(Nc2ncnc3cc(OCCOC)c(OCCOC)cc23)c1 [Erlotinib, erlotinib]
cell cycle arrest phase [11]: G1/G0 phase
cell cycle arrest phase [12]: G0/G1 phase
cell cycle arrest phase [13]: G1/S checkpoint

COc1cccc2c1C(=O)c1c(O)c3c(c(O)c1C2=O)C[C@@](O)(C(=O)CO)C[C@@H]3O[C@H]1C[C@H](N)[C@H](O)[C@H](C)O1 [doxorubicin, reference compound]
IC50 [1]: 5.85 ± 0.61 µM
IC50 [2]: 8.65 ± 0.37 µM
IC50 [3]: 4.76 ± 0.44 µM
